≈ marks a conversion by molar mass, not a printed value. Where a name gives a salt, the structure may show the parent alone.
Legend:
[1] = system: proliferation of the intima (arteria carotis comm.); details: rat; heparin following parenteral administration; cited from earlier work
[2] = system: liver cholesterol; test: Cholesterol loading test; type: in vivo, Wistar rats; details: rat, 24 hours
Description: Cholesterol loading tests were carried out on conscious male or female Wistar rats weighing between 130-230 g.
Cholesterol and the substance to be tested were simultaneously administered orally in 0.75% strength tragacanth suspension. After 24 hours, the animals were sacrificed and the cholesterol content of the liver was determined. Cholesterol was determined by the Liebermann-Burchard method using the test combination of Boehringer Mannheim. Control animals received a corresponding volume of cholesterol/tragacanth suspension without the test substance. To monitor the rise in cholesterol as a result of cholesterol loading, tragacanth suspension containing no cholesterol was administered orally to another control group.

[3] = system: platelet aggregation in rat PRP; test: Platelet aggregation-inhibiting action (PAH) ex vivo, thromboatherosclerosis experiment; type: in vivo; details: po, 1.5 h, read-out: PAH ex vivo: Activity, ED50 (dose/concentration range)
Description: The change in optical density of the sample of PRP was recorded over a period of 6 minutes and was determined via the reading after 6 minutes. The percentage inhibition is calculated from the corresponding readings. Moreover, the platelet aggregation was also determined in the context of the thromboatherosclerosis experiment. In carrying out these experiments, the active substance was administered to the animals orally in a Tylose suspension over a period of 10 days. On the 10th day, the animals were exsanguinated 90 minutes after the oral administration of the substance, and the PRP was isolated by means of centrifugation. After the PRP has been isolated, in vitro measurement of the aggregation inhibition starts, analogously to the process which has been described for the in vitro experiments; but without pre-incubation of the samples. 3 parts of rat PRP were also diluted with one part of physiological saline solution.
Atherosclerotic plaques are induced in rats by combination of two noxae (risk factors), that is to say vascular lesion and hyperlipaemia. By supercooling of the arteria carotis comm. (2 minutes, -10° C.), partial or complete endothelial scaling occurs in a locally restricted area. Proliferation of the intima occurs within 10 days, which is a relatively short period for such experiments, and largely corresponds to the early stages of atherosclerotic plaques in humans. The proliferation zones are removed and weighed. The moist weight in the supercooled segment of 1 cm is about 200-300 μg. The animals are additionally given a high-fat diet having the following composition: […]

[4] = system: proliferation of the intima (arteria carotis comm.); test: Anti-atherosclerotic action, thromboatherosclerosis model; type: in vivo; details: po; rat, per orally; read-out: anti-atherosclerotic: Activity, ED50 (dose/concentration range)
Description: Because of some fluid transitions between atherosclerosis and thrombosis, we have called the method used "thromboatherosclerosis model".
Folia angiologica 28, 85 (1980).
Atherosclerotic plaques are induced in rats by combination of two noxae (risk factors), that is to say vascular lesion and hyperlipaemia. By supercooling of the arteria carotis comm. (2 minutes, -10° C.), partial or complete endothelial scaling occurs in a locally restricted area. Proliferation of the intima occurs within 10 days, which is a relatively short period for such experiments, and largely corresponds to the early stages of atherosclerotic plaques in humans. The proliferation zones are removed and weighed. The moist weight in the supercooled segment of 1 cm is about 200-300 μg. The animals are additionally given a high-fat diet having the following composition:
52% of normal feed (Altromin®).
The lipid deposits are stained with the fat-soluble dyestuff Sudan IV and can be determined as an additional parameter.

[5] = biological target: T1, Cyclooxygenase (Homo sapiens, UniProt P23219); test: Arachidonic acid metabolism in platelets: cyclooxygenase inhibition; type: cell-based; details: 3H-arachidonic acid, read-out: Cyclooxygenase inhibition: Activity, ED50 (dose/concentration range) (converted)
T1 construct: endogenous in cells; host or cells: human platelets
T1 sequence (P23219 24-599): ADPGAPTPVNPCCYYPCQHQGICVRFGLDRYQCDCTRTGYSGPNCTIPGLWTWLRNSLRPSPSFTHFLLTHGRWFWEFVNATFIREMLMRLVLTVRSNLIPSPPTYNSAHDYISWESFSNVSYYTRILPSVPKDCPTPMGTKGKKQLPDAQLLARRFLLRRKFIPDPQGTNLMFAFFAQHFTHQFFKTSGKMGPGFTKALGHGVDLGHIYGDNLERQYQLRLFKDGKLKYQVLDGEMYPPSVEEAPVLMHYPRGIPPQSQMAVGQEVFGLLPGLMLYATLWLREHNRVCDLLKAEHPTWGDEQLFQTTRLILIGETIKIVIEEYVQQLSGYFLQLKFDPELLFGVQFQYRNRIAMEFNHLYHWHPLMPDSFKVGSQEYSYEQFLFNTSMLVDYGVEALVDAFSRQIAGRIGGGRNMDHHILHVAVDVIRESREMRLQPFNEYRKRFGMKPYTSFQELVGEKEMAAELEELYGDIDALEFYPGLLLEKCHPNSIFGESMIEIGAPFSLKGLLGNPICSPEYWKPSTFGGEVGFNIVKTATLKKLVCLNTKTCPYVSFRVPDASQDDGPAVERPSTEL
From the text: In human platelets, ^3 H-arachidonic acid is converted into the products of the cyclooxygenase/thromboxane synthetase path, in particular thromboxane A2, and those of the lipoxygenase path, HETE. Separation of the resulting products by thin layer chromatography gives a characteristic pattern. Inhibitors of the individual enzymatic reactions modify this pattern in a typical manner (Bailey, J. M. et al., Prostaglandins 13, 479-492 (1977)). The action of the compounds according to the invention on individual reactions in arachidonic acid metabolism are shown in Table 2.

[6] = system: Trichophyton mentagrophytes; test: Antimycetic in vitro activity, series dilution test; type: cell-based; details: Sabourands' milieu d'epreuve, 96 hours, 20° C.; for MIC: read-out: Minimum inhibitory concentration
Description: (§1) The in vitro tests were carried out in a series dilution test using germ inocula of on average 5×10^4 germs/ml of substrate. The nutrient medium used was
(§2) (a) Sabourands' milieu d'epreuve for dermatophytes and moulds; and
(§3) (b) meat extract/dextrose broth for yeasts.
(§4) The incubation temperature was 20° C. and the incubation time was 24 to 96 hours for yeasts and 96 hours for dermatophytes and moulds.

[7] = system: Aspergillus fumigatus; test: as above; type: cell-based; details: Sabourands' milieu d'epreuve, 96 hours, 20° C.; for MIC: read-out: Minimum inhibitory concentration
Description: as §1, §2, §3, §4

[8] = system: Microsporum canis; test: as above; type: cell-based; details: Sabourands' milieu d'epreuve, 96 hours, 20° C.; for MIC: read-out: Minimum inhibitory concentration
Description: as §1, §2, §3, §4

[9] = system: Candida albicans; test: as above; type: cell-based; details: meat extract/dextrose broth, 24 to 96 hours, 20° C.; for MIC: read-out: Minimum inhibitory concentration
Description: as §1, §2, §3, §4

[10] = system: Torulopsis glabrata; test: as above; type: cell-based; details: meat extract/dextrose broth, 24 to 96 hours, 20° C.; for MIC: Nakaseomyces glabratus, read-out: Minimum inhibitory concentration
Description: as §1, §2, §3, §4

Compound	MIC [6]	MIC [7]	MIC [8]	MIC [9]	MIC [10]	also measured
neomycin	–	–	–	–	–	effectiveness in thromboatherosclerosis model (in words), prior agents [1]: ineffective
O=C(O)c1cccnc1 [nicotinic acid]	–	–	–	–	–	effectiveness in thromboatherosclerosis model (in words), prior agents [1]: ineffective
c1cc2c(cc1-c1csc(N=C3NCCCN3)n1)CCCC2 [Example 25]	–	–	–	–	–	Reduction in the increase in liver cholesterol in percent in comparison with the control, following oral cholesterol loading ([2]; 10 mg/kg per orally): 65.3%; Reduction in the increase in liver cholesterol in percent in comparison with the control, following oral cholesterol loading ([2]; 30 mg/kg per orally): 78.1%; ED50 [3]: 100 mg/kg
CN1CCCNC1=Nc1nc(-c2ccccc2)cs1 [Example 49]	–	–	–	–	–	ED50 [4]: 100 mg/kg; ED50 [3]: 100 mg/kg; IC50 [5]: 36.7 µM
c1ccc2c(-c3csc(N=C4NCCCN4)n3)cccc2c1 [Example 24]	< 1 µg/mL	< 1 µg/mL	< 1 µg/mL	2 µg/mL (≈ 6.48 µM)	8 µg/mL (≈ 25.9 µM)	–
heparin	–	–	–	–	–	effectiveness in thromboatherosclerosis model (in words), prior agents [1]: effective
Cc1cc(Cl)ccc1-c1csc(N=C2NCCCN2)n1 [Example 33, 2-(N-(4'-(4"-Chloro-2"-methylphenyl)-thiazol-2'-yl)imino)-hexahydropyrimidine hydrochloride]	2 µg/mL	2 µg/mL	2 µg/mL	2 µg/mL	16 µg/mL	–
Clc1ccc(-c2csc(N=C3NCCCN3)n2)c(Cl)c1 [Example 27]	< 1 µg/mL	8 µg/mL (≈ 24.4 µM)	< 1 µg/mL	< 1 µg/mL	16 µg/mL (≈ 48.9 µM)	–
Cc1nc(N=C2NCCCN2)sc1C(=O)Nc1ccc(Cl)cc1 [Example 17]	–	–	–	–	–	Reduction in the increase in liver cholesterol in percent in comparison with the control, following oral cholesterol loading ([2]; 100 mg/kg per orally): 56.1%; ED50 [3]: 100 mg/kg
Clc1ccc(C2(Cn3ccnc3)OCC(COc3ccc(-c4ccccc4)cc3)O2)c(Cl)c1 (centres unmarked) [Doconazol, doconazol, reference compound]	–	–	–	–	–	Minimum inhibitory concentration [6]: < 1 µg/mL; Minimum inhibitory concentration [7]: 4 µg/mL (≈ 8.31 µM); Minimum inhibitory concentration [8]: 8 µg/mL (≈ 16.6 µM); Minimum inhibitory concentration [9]: < 1 µg/mL; Minimum inhibitory concentration [10]: < 1 µg/mL
CC(=O)N1CCN(c2ccc(OCC3COC(Cn4ccnc4)(c4ccc(Cl)cc4Cl)O3)cc2)CC1 (centres unmarked) [Ketoconazol, ketoconazol, reference compound]	< 1 µg/mL	16 µg/mL (≈ 30.1 µM)	4 µg/mL (≈ 7.53 µM)	< 1 µg/mL	1 µg/mL (≈ 1.88 µM)	–
c1ccc(-c2csc(N=C3NCCCN3)n2)cc1 [Example 22]	< 1 µg/mL	< 1 µg/mL	< 1 µg/mL	4 µg/mL (≈ 15.5 µM)	32 µg/mL (≈ 124 µM)	–
